Assay results published in ChEMBL document CHEMBL4296183, “CO-ADD screening of NIH NCI Natural Product Set III” (2020).
≈ marks a conversion by molar mass, not a printed value.

Assays:
HEK293 = test: cells; format: functional; settings: Homo sapiens, ATCC CRL1573, HEK293; ASSAY_TEST Inhibition of Cell Viability; detection method Resazurin; Fluorescence (ex560/em590); MEDIA DMEM with 10% FBS; plate type 384well; TC; CORNING #3712; time 18 hr
Staphylococcus aureus = test: microbe, parasite or virus in culture; settings: ATCC 43300, 18 h, ASSAY_TEST Inhibition of Bacterial Growth, detection method Absorption (OD600), MEDIA CAMHB, plate type 384well, NBS, CORNING #3640
Description: Antibacterial activity against Staphylococcus aureus MRSA ATCC 43300 (CO-ADD:GP_020); MIC in CAMBH media, using NBS plates, by OD(600)

Escherichia coli = test: microbe, parasite or virus in culture; settings: ATCC 25922, 18 h, ASSAY_TEST Inhibition of Bacterial Growth, detection method Absorption (OD600), MEDIA CAMHB, plate type 384well, NBS, CORNING #3640
Description: Antibacterial activity against Escherichia coli ATCC 25922 (CO-ADD:GN_001); MIC in CAMBH media using NBS plates, by OD(600)

Klebsiella pneumoniae = test: microbe, parasite or virus in culture; settings: ATCC 700603, 18 h, ASSAY_TEST Inhibition of Bacterial Growth, detection method Absorption (OD600), MEDIA CAMHB, plate type 384well, NBS, CORNING #3640
Description: Antibacterial activity against Klebsiella pneumoniae MDR ATCC 70063 (CO-ADD:GN_003); MIC in CAMBH media using NBS plates, by OD(600)

Pseudomonas aeruginosa = test: microbe, parasite or virus in culture; settings: ATCC 27853, 18 h, ASSAY_TEST Inhibition of Bacterial Growth, detection method Absorption (OD600), MEDIA CAMHB, plate type 384well, NBS, CORNING #3640
Description: Antibacterial activity against Pseudomonas aeruginosa ATCC 27853 (CO-ADD:GN_042); MIC in CAMBH media using NBS plates, by OD(600)

Acinetobacter baumannii = test: microbe, parasite or virus in culture; settings: ATCC 19606, 18 h, ASSAY_TEST Inhibition of Bacterial Growth, detection method Absorption (OD600), MEDIA CAMHB, plate type 384well, NBS, CORNING #3640
Description: Antibacterial activity against Acinetobacter baumannii ATCC 19606 (CO-ADD:GN_034); MIC in CAMBH media using NBS plates, by OD600

Candida albicans = test: microbe, parasite or virus in culture; settings: ATCC 90028, ASSAY_TEST Inhibition of Fungal Growth, detection method Absorption (OD530), plate type 384well, NBS, CORNING #3640
Description: Antifungal activity against Candida albicans ATCC 90028 (CO-ADD:FG_001); MIC in YNB media using NBS plates, by OD630

Description for Cryptococcus neoformans: Antifungal activity against Cryptococcus neoformans H99 ATCC 208821 (CO-ADD:FG_002); MIC in YNB media using NBS plates, by Resazurin OD(600-570)

MIC (Cryptococcus neoformans) | MIC (Staphylococcus aureus) | MIC (Escherichia coli) | MIC (Klebsiella pneumoniae) | MIC (Pseudomonas aeruginosa) | MIC (Acinetobacter baumannii) | MIC (Candida albicans) | Structure (SMILES) | CC50 (HEK293)
0.156 µM (≈ 0.143 µg/mL) | > 10 µM | > 10 µM | > 10 µM | > 10 µM | > 10 µM | ≤ 0.0781 µM | CO[C@H]1C[C@@H]2CC[C@@H](C)[C@@](O)(O2)C(=O)C(=O)N2CCCC[C@H]2C(=O)O[C@H]([C@H](C)C[C@@H]2CC[C@@H](O)[C@H](OC)C2)CC(=O)[C@H](C)/C=C(\C)[C@@H](O)[C@@H](OC)C(=O)[C@H](C)C[C@H](C)/C=C/C=C/C=C/1C [SIROLIMUS] | > 10 µM
1.25 µM (≈ 0.633 µg/mL) | ≤ 0.0781 µM | 5 µM (≈ 2.53 µg/mL) | > 10 µM | 10 µM (≈ 5.06 µg/mL) | > 10 µM | 0.156 µM (≈ 0.0792 µg/mL) | COC1=C(N)C(=O)c2nc(-c3nc(C(=O)O)c(C)c(-c4ccc(OC)c(OC)c4O)c3N)ccc2C1=O [STREPTONIGRIN] | 0.115 µM

Structure (SMILES) | MIC (Cryptococcus neoformans) | MIC (Staphylococcus aureus) | MIC (Escherichia coli) | MIC (Klebsiella pneumoniae) | MIC (Pseudomonas aeruginosa) | MIC (Acinetobacter baumannii) | MIC (Candida albicans) | CC50 (HEK293)
COC[C@H]1OC(=O)c2coc3c2[C@@]1(C)C1=C(C3=O)[C@@H]2CCC(=O)[C@@]2(C)C[C@H]1OC(C)=O [WORTMANNIN] | 5 µM (≈ 2.14 µg/mL) | > 10 µM | > 10 µM | > 10 µM | > 10 µM | > 10 µM | 0.625 µM (≈ 0.268 µg/mL) | 7.83 µM
